Results from US20140088032A1, “TREATMENT OF MASTITIS” (priority 2011, published 2014).
≈ marks a conversion by molar mass, not a printed value. Where “and” joins values, the source holds several entries; their conditions need not be identical. Equal values may be shown once. Entries after “also recorded” stand apart in the source; their conditions may differ. Where a name gives a salt, the structure may show the parent alone. Read-outs that look alike come from different tables or passages of the source.

What was measured:
[1] = tested on: S. aureus strain Newbould 305; assay: MIC against the S. aureus challenge strain; assay type: cell-based, Staphylococcus aureus; conditions: S. aureus Newbould 305 strain used for the challenge
[2] = tested on: Staphylococcus aureus strain Newbould 305 (ATCC 29740); assay: Example 1: experimental S. aureus mastitis in lactating cows, intramammary treatment; assay type: in vivo, Prim'Holstein lactating cows
Procedure: A Staphylococcus aureus strain Newbould 305 (ATCC 29740) stock suspension (about 10^11 CFU/ml) was kept frozen at −80° C. in peptone physiological water with 10% of glycerol. On day 0, the stock solution was thawed and diluted in peptone physiological water to a concentration of ca 1000 cfu/ml.
On Day 0 8 Prim'Holstein lactating cows, animals of between 2-5 years old and at least 2 months in lactation, were intramammarily inoculated into two homolateral quarters with 1 ml of S. aureus suspension per quarter (ca. 1000 cfu/quarter) into the teat cistern with sterile 2-ml syringes. Teat ends were disinfected with towels soaked in a disinfectant solution before infusion.
On day 6 after the challenge 4 cows (8 quarters) were treated with 75 mg cefquinome—one injector after each of 3 consecutive milkings—Group A. The 4 other cows infected were treated with 75 mg cefquinome as well, but 10 μg of re-LPS were infused just before each cefquinome infusion—Group B.
The standard assay for measuring mastitis in the dairy industry is to count the number of cells (originating from the cow) in the milk. This estimate is termed the somatic cell count (SCC). Specifically, the SCC reflects the levels of cells, including immune cells, such as leukocytes that are released from the lining and tissues of the udder of the infected animal, into the udder cavity. The number of somatic cells in a given volume of milk (typically 1 ml) provides a semi-quantitative estimate of the degree of mastitis, because unaffected animals typically have low SCC levels.
Milk samples were investigated for S. aureus presence and SCC levels at several time points during the study (days 2, 6, 9, 13, 16, 20, 23 post challenge for S. aureus bacteriology).
Clinical cure was assessed 16 days after treatment end (i.e. 23 days after the challenge), and was defined as having at least the two last consecutive milk samples with SCC <250000 cells/ml.

[3] = relative to native LPS; cited from earlier work
TLR4 = conditions: relative to native LPS; cited from earlier work
[4] = tested on: Staphylococcus aureus strain Newbould 305 (ATCC 29740); assay: Example 2: experimental S. aureus mastitis in lactating cows, intramammary treatment; assay type: in vivo, Prim'Holstein lactating cows; conditions: after Re-LPS infusion with neomycin/penicillin
Procedure: A Staphylococcus aureus strain Newbould 305 (ATCC 29740) stock suspension (about 10^9 CFU/ml) was kept frozen at −80° C. in peptone physiological water with 10% of glycerol. On day 0, the stock solution was thawed and diluted in peptone physiological water to a concentration of ca 200 cfu/ml.
On Day 0, 12 Prim'Holstein lactating cows, animals of between 2-8 years old and at least 1 month in lactation, were inoculated by intramammary route into two homo-lateral quarters, with 5 ml of S. aureus suspension per quarter (ca. 1000 cfu/quarter), using 5-ml syringes. Teat ends were disinfected with towels soaked in a disinfectant solution before infusion. […]
The standard assay for measuring mastitis in the dairy industry is to count the number of cells (originating from the cow) in the milk. […] The number of somatic cells in a given volume of milk (typically 1 ml) provides a semi-quantitative estimate of the degree of mastitis, because unaffected animals typically have low SCC levels. […]
Bacteriological cure was assessed 16 days after treatment end (i.e. 24 days after the challenge) and was defined as having at least the two last consecutive milk samples found negative for S. aureus (<5 cfu/ml).
Clinical cure was assessed 16 days after treatment end (i.e. 24 days after the challenge), and was defined as having at least the two last consecutive milk samples with SCC <250000 cells/ml.

## neomycin
[1]
  MIC: 2 µg/mL

## CC1(C)S[C@@H]2[C@H](NC(=O)Cc3ccccc3)C(=O)N2[C@H]1C(=O)O [benzyl penicillin]
[1]; Staphylococcus aureus, read-out: MIC
  MIC: 0.064 µg/mL (≈ 0.191 µM)

## CCCCCCCCCCCCCC(=O)O[C@H](CCCCCCCCCCC)CC(=O)OC1C(NC(=O)C[C@@H](CCCCCCCCCCC)OC(=O)CCCCCCCCCCC)[C@H](OCC2O[C@H](OP(=O)(O)O)C(NC(=O)C[C@H](O)CCCCCCCCCCC)C(OC(=O)C[C@H](O)CCCCCCCCCCC)[C@@H]2O)OC(CO[C@]2(C(=O)O)CC(O[C@]3(C(=O)O)CC(O)[C@@H](O)C([C@H](O)CO)O3)[C@@H](O)C([C@H](O)CO)O2)[C@H]1OP(=O)(O)O.N.N.N.N (stereo partly drawn) [Re-LPS, Kdo2-lipid A]
[2]; after Re-LPS infusion with cefquinome, Example 1
  SCC levels induced by treatment: above 1.10^6 cells per ml
[3]
  Endotoxin activity: equal to that of native LPS; also recorded: comparable to that of native LPS
TLR4
  Ability to activate TLR4: comparable to that of native LPS
[4]
  SCC levels induced by treatment: above 1.10^6 cells per ml

## CO/N=C(\C(=O)N[C@@H]1C(=O)N2C(C(=O)[O-])=C(C[n+]3cccc4c3CCCC4)CS[C@H]12)c1csc(N)n1 [cefquinome, I1-[[(6R,7R)-7-[[(2Z)-(2-amino-4-thiazolyl)-(methoxyimino)acetyl]amino]-2-carboxy-8-oxo-5-thia-1-azabicyclo[4.2.0-oct-2-en-3-yl]methyl]-5,6,7,8-tetrahydroquinoliniuminner salt]
[2]; day 23
  Quarters cure rate, bacteriological + clinical: 37.5% (3/8)
[2]; day 23, two last samples SCC <250000 cells/ml
  Quarters cure rate, clinical: 37.5% (3/8)
[2]; individual quarter, assessed at day 23 (16 days after treatment end)
  Cure: no (4×) and yes (4×)
[2]; individual quarter, day 9 relative to infection (day 0), treatment at day 6
  Quarter milk SCC at day 9: 628 ×10^3 cell/ml and 310 ×10^3 cell/ml and 521 ×10^3 cell/ml and 533 ×10^3 cell/ml and 763 ×10^3 cell/ml and 334 ×10^3 cell/ml and 795 ×10^3 cell/ml and 249 ×10^3 cell/ml
[2]; individual quarter, day 13 relative to infection, treatment at day 6
  Quarter milk SCC at day 13: 384 ×10^3 cell/ml and 828 ×10^3 cell/ml and 1533 ×10^3 cell/ml and 414 ×10^3 cell/ml and 250 ×10^3 cell/ml and 177 ×10^3 cell/ml and 112 ×10^3 cell/ml and 134 ×10^3 cell/ml
[2]; individual quarter, day 16 relative to infection, treatment at day 6
  Quarter milk SCC at day 16: 2032 ×10^3 cell/ml and 921 ×10^3 cell/ml and 254 ×10^3 cell/ml and 317 ×10^3 cell/ml and 74 ×10^3 cell/ml and 125 ×10^3 cell/ml and 785 ×10^3 cell/ml and 95 ×10^3 cell/ml
[2]; individual quarter, day 20 relative to infection, treatment at day 6
  Quarter milk SCC at day 20: 2008 ×10^3 cell/ml and 717 ×10^3 cell/ml and 281 ×10^3 cell/ml and 589 ×10^3 cell/ml and 137 ×10^3 cell/ml and 177 ×10^3 cell/ml and 1686 ×10^3 cell/ml and 77 ×10^3 cell/ml
[2]; individual quarter, day 23 relative to infection, treatment at day 6
  Quarter milk SCC at day 23: 1382 ×10^3 cell/ml and 739 ×10^3 cell/ml and 536 ×10^3 cell/ml and 186 ×10^3 cell/ml and 98 ×10^3 cell/ml and 109 ×10^3 cell/ml and 2482 ×10^3 cell/ml and 47 ×10^3 cell/ml
[1]
  MIC: 0.25 µg/mL
